{
  "source": "paper PMC4620497",
  "about": "(Scientific Reports, 2015)",
  "key": {"ERBB2 [1]": {"target": "T1, ERBB2 (Homo sapiens, UniProt P04626)", "T1 sequence (P04626 23-1255)": "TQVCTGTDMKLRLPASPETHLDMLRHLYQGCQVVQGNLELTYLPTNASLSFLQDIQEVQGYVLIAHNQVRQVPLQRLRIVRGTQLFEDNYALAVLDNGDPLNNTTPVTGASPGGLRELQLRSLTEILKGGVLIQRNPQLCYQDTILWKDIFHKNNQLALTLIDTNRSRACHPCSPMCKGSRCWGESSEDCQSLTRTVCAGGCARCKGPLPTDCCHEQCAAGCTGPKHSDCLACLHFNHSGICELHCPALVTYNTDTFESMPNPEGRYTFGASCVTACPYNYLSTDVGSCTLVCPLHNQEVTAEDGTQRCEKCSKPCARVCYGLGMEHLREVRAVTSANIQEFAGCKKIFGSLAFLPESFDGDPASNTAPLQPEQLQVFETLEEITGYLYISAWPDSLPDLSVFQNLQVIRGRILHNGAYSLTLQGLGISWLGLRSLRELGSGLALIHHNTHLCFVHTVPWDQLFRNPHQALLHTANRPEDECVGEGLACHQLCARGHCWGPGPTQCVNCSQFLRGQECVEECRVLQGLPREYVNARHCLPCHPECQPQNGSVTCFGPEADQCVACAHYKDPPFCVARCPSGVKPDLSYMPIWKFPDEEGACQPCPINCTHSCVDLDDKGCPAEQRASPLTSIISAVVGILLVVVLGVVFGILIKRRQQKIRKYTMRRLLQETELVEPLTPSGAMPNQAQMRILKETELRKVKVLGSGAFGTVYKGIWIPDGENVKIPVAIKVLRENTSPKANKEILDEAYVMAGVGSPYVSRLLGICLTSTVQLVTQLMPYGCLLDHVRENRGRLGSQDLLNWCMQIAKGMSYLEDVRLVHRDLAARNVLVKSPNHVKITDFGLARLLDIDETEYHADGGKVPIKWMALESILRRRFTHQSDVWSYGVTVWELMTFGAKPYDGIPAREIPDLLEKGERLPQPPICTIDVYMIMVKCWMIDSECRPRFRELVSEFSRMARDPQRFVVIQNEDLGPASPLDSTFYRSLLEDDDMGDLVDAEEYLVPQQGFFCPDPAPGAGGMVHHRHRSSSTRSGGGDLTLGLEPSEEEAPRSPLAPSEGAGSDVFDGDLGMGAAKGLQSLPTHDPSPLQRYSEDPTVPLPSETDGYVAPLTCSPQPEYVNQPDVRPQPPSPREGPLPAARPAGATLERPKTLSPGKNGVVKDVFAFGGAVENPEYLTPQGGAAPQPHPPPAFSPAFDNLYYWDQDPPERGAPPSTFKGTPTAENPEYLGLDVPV", "set-up": "method as in earlier work", "settings": "Table S1; cited from earlier work"}, "PIK3C2G": {"target": "T2, PIK3C2G (Homo sapiens, UniProt O75747)", "T2 construct": "purchased DiscoveRx KINOMEscan (Ambit Biosciences)", "experiment": "KINOMEscan panel screen", "assay_type": "binding", "settings": "read-out: Percent Control(%)"}, "SgK110": {"target": "T3, SgK110 (Homo sapiens, UniProt P0C264)", "T3 construct": "purchased DiscoveRx KINOMEscan (Ambit Biosciences)", "experiment": "KINOMEscan panel screen", "assay_type": "binding", "settings": "read-out: Percent Control(%)"}, "MET(M1250T)": {"target": "T4, MET(M1250T) (Homo sapiens, UniProt P08581, M1250T)", "T4 construct": "purchased DiscoveRx KINOMEscan (Ambit Biosciences)", "experiment": "KINOMEscan panel screen", "assay_type": "binding", "settings": "read-out: Percent Control(%)"}, "FLT3-autoinhibited": {"target": "T5, FLT3-autoinhibited (Homo sapiens, UniProt P36888)", "T5 construct": "purchased DiscoveRx KINOMEscan (Ambit Biosciences)", "experiment": "KINOMEscan panel screen", "assay_type": "binding", "settings": "read-out: Percent Control(%)"}, "[2]": {"system": "MV4-11 bone marrow transplant", "experiment": "MV4-11 bone marrow engraftment model", "assay_type": "in vivo, NOD-SCID mice", "settings": "for mean survival time (MST): vehicle 51 days", "description": "Finally, the influence of SKLB-677 on survival time was examined using a bone marrow (BM) transplant model of MV4-11. In the vehicle control group, the mean survival time (MST) was 51 days, with all animals expired by day 58.\nNOD-SCID mice were pretreated with cyclophosphamide by intraperitoneal injection of 150 mg/kg/d for 2 days. Following a 24-hour rest period, the mice were intravenously injected with 8 × 10^6 MV4-11 cells per mouse via the tail vein. From the day 21 after inoculation, SKLB-677 or vehicle was administered orally once a day for 30 days.\nSupplementary Figure S9. NOD- SC ID mice were intravenousl y inject ed with 8×10^6 MV4-11 cells per mouse via the tail vein. Oral administration of S K LB -677 at 10 mg/kg/d was initiated on day 21 after the inoculati on. Mouse ( 3mice per group) thigh femurs were collected for immunohistochemical Ki67 anal ysis after 6 d a ys of […]\nregression of bone marrow tumor. Scale bar, 100μm.\n(1 picture or pasted object on this page, not shown here)"}, "PRKD1": {"target": "T6, PRKD1 (Homo sapiens, UniProt Q15139)", "T6 construct": "purchased DiscoveRx KINOMEscan (Ambit Biosciences)", "experiment": "KINOMEscan panel screen", "assay_type": "binding", "settings": "read-out: Percent Control(%)"}, "HIPK4": {"target": "T7, HIPK4 (Homo sapiens, UniProt Q8NE63)", "T7 construct": "purchased DiscoveRx KINOMEscan (Ambit Biosciences)", "experiment": "KINOMEscan panel screen", "assay_type": "binding", "settings": "read-out: Percent Control(%)"}, "CAMK2A": {"target": "T8, CAMK2A (Homo sapiens, UniProt Q9UQM7)", "T8 construct": "purchased DiscoveRx KINOMEscan (Ambit Biosciences)", "experiment": "KINOMEscan panel screen", "assay_type": "binding", "settings": "read-out: Percent Control(%)"}, "PC-9": {"system": "PC-9", "experiment": "MTT cell viability assay", "settings": "Homo sapiens, PC-9, 72 h"}, "[3]": {"target": "T9, TYK2(JH1domain-catalytic) (Homo sapiens, UniProt P29597)", "T9 construct": "TYK2(JH1domain-catalytic); purchased DiscoveRx KINOMEscan (Ambit Biosciences)", "experiment": "KINOMEscan panel screen", "assay_type": "binding", "settings": "read-out: Percent Control(%)"}, "TTK": {"target": "T10, TTK (Homo sapiens, UniProt P33981)", "T10 construct": "purchased DiscoveRx KINOMEscan (Ambit Biosciences)", "T10 sequence (P33981 whole entry)": "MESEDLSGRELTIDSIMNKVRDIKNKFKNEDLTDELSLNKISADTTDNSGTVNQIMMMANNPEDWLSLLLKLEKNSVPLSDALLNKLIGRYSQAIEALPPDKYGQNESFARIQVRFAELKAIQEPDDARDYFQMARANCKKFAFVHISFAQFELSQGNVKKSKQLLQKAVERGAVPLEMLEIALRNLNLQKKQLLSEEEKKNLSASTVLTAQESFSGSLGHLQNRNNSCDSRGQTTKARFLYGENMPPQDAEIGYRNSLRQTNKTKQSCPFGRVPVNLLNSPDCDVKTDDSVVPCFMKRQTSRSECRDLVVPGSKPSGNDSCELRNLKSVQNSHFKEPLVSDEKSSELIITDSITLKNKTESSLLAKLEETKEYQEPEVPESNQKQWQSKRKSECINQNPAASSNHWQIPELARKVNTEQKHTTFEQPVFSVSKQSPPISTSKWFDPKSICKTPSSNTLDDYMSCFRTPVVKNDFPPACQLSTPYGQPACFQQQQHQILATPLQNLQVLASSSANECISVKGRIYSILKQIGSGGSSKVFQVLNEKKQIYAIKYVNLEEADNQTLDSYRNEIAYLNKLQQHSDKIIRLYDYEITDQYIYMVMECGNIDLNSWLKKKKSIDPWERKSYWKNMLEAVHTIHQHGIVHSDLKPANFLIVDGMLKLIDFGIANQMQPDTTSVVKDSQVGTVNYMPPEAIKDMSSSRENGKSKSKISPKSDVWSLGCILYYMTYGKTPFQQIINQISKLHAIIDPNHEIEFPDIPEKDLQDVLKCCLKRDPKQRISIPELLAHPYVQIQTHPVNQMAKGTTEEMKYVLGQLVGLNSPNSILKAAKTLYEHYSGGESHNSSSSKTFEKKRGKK", "experiment": "KINOMEscan panel screen", "assay_type": "binding", "settings": "read-out: Percent Control(%)"}, "PYK2": {"target": "T11, PYK2 (Homo sapiens, UniProt Q14289)", "T11 construct": "purchased DiscoveRx KINOMEscan (Ambit Biosciences)", "T11 sequence (Q14289 whole entry)": "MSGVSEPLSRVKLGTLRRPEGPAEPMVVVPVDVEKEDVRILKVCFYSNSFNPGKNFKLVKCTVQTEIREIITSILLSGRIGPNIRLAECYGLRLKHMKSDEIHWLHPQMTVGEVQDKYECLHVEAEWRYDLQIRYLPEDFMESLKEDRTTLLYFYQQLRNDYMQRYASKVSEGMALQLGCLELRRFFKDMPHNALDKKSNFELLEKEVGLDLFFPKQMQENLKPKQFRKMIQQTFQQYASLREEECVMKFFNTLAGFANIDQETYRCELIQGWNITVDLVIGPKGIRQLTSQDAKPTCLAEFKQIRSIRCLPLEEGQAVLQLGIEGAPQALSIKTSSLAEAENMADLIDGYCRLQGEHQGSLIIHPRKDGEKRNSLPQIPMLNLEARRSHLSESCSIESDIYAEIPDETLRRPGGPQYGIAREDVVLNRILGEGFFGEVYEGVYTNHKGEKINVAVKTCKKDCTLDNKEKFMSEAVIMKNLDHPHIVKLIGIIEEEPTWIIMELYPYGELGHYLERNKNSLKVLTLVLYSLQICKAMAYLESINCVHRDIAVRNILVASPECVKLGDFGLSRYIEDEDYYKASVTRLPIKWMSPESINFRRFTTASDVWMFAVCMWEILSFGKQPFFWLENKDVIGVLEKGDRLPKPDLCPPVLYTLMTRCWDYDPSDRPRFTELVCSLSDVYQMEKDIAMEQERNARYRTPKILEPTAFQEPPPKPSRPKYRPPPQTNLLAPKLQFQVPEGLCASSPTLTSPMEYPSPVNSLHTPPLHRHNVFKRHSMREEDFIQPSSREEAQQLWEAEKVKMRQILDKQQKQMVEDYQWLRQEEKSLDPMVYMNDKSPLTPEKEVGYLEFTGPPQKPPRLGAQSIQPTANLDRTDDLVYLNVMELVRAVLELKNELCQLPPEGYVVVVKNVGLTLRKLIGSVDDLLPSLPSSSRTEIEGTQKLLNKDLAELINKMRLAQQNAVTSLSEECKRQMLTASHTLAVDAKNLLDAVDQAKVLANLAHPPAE", "experiment": "KINOMEscan panel screen", "assay_type": "binding", "settings": "read-out: Percent Control(%)"}, "ROCK1": {"target": "ROCK1 (Homo sapiens, UniProt Q13464)", "experiment": "KINOMEscan panel screen", "assay_type": "binding", "settings": "read-out: Percent Control(%)"}, "C32": {"system": "C32", "experiment": "MTT cell viability assay", "settings": "Homo sapiens, C32, 72 h"}, "PRKG2": {"target": "T12, PRKG2 (Homo sapiens, UniProt Q13237)", "T12 construct": "purchased DiscoveRx KINOMEscan (Ambit Biosciences)", "experiment": "KINOMEscan panel screen", "assay_type": "binding", "settings": "read-out: Percent Control(%)"}, "[4]": {"target": "T13, RPS6KA5(Kin.Dom.1-N-terminal) (Homo sapiens, UniProt O75582)", "T13 construct": "RPS6KA5(Kin.Dom.1-N-terminal); purchased DiscoveRx KINOMEscan (Ambit Biosciences)", "T13 sequence (O75582 49-318 limits assumed)": "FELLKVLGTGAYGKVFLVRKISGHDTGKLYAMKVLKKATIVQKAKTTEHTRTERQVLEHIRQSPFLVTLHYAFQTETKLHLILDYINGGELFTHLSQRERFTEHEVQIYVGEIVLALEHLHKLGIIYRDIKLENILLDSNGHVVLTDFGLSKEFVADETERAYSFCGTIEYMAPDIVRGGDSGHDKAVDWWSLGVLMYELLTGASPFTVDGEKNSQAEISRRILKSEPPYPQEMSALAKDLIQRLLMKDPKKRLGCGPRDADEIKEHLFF", "experiment": "KINOMEscan panel screen", "assay_type": "binding", "settings": "read-out: Percent Control(%)"}, "MV4-11 tumor xenograft": {"system": "MV4-11 tumor xenograft", "experiment": "MV4-11 tumor xenograft model", "assay_type": "in vivo", "description": "Female 5- to 6-week-old NOD-SCID mice (Beijing HFK Bioscience) were housed in a sterile environment and fed a standard diet ad libitum. […] A 100- μl aliquot of the cell suspension was injected subcutaneously into the hind flank of each mouse to establish the xenograft model. […] The tumor volume was calculated using the following formula: volume = a × b^2/2 (a, long diameter; b, short diameter).\nParaffin-embedded tumors were subjected to immunostaining with Ki67 (Thermo Fisher), transferase-mediated dUTP nick-end labeling (TUNEL, Thermo Fisher). The representative images were taken on a LEICA DM 2500 microscope with a LEICA DFC425 C camera. Image acquisition software: LAS V3.7.\n(a) MV4-11 cells (10^7 cells/mouse) were s.c. inoculated into NOD-SCID mice. […] The tumor volume and body weight were measured every 3 days during the treatment. The mean values ± SD are shown. […] Ki67 and TUNEL were detected with immunohistochemical. Representative images were shown. […] Tumors were harvested at the indicated time points, and the FLT3 signaling pathway was detected using western blot assays. The experiments were performed on three groups of mice. The results of the other two groups are given in Supplementary Data (Supplementary Fig. S8). […] The results shown in the histogram are the statistic data of three groups of mice. ns, not statistically significant, *P < 0.05, **P < 0.01. (e) The same harvested tumors were detected using real-time qPCR assays to test the expression of AXIN2 and NKD1 (the target genes of Wnt/β-catenin pathway). All results were normalized to the level of GAPDH (mean ± SEM from triplicate groups). ns, not statistically significant, *P < 0.05, **P < 0.01. (f) Kaplan-Meier plot of survival. […] The plasma concentrations were determined using liquid–liquid extraction followed by high-performance liquid chromatography (HPLC) with tandem mass spectrometric detection."}, "PIK3CA": {"target": "T14, PIK3CA (Homo sapiens, UniProt P42336)", "T14 construct": "purchased DiscoveRx KINOMEscan (Ambit Biosciences)", "T14 sequence (P42336 whole entry)": "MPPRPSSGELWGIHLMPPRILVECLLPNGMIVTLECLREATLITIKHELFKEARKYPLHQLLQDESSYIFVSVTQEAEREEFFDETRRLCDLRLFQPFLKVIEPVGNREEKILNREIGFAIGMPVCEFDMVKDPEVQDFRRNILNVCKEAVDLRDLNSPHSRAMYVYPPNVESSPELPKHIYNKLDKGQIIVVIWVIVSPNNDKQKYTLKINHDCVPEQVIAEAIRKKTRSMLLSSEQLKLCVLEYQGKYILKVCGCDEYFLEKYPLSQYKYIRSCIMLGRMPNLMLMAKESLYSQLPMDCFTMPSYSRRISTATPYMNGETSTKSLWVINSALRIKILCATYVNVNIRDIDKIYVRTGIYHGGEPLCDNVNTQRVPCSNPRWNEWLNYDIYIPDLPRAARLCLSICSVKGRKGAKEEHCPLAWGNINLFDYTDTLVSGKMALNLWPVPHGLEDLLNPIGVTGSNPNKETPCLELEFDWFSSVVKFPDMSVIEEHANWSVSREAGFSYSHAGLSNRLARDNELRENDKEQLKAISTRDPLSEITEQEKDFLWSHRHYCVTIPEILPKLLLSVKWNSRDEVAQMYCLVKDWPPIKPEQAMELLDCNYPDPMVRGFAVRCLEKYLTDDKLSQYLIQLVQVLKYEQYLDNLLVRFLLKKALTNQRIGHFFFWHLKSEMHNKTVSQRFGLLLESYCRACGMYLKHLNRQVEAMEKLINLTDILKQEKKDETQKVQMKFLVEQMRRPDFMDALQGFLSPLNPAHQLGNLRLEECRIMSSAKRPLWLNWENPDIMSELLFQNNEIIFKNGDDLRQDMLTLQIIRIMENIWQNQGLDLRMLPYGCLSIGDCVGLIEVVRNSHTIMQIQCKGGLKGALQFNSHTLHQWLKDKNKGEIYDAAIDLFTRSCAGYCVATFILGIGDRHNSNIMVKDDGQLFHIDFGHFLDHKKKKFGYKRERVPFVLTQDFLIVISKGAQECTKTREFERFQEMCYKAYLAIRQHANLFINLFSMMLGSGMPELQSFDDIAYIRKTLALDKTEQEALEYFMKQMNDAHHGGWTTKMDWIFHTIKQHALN", "experiment": "KINOMEscan panel screen", "assay_type": "binding", "settings": "read-out: Percent Control(%)"}, "ERBB2 [5]": {"target": "T1, ERBB2", "experiment": "KINOMEscan panel screen", "assay_type": "binding", "settings": "read-out: Percent Control(%)"}, "CDK4-cyclinD1": {"target": "T15, CDK4-cyclinD1 (Homo sapiens, UniProt P11802)", "T15 construct": "purchased DiscoveRx KINOMEscan (Ambit Biosciences)", "T15 sequence (P11802 whole entry)": "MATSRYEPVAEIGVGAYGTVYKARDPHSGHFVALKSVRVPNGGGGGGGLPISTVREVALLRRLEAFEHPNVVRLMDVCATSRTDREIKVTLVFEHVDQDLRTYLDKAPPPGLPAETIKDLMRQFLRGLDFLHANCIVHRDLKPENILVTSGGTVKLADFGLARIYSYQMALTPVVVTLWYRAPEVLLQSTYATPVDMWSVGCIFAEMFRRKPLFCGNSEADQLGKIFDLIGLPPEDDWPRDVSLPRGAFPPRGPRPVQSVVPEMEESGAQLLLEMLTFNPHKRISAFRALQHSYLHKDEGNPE", "T15 sequence (P24385 whole entry partner)": "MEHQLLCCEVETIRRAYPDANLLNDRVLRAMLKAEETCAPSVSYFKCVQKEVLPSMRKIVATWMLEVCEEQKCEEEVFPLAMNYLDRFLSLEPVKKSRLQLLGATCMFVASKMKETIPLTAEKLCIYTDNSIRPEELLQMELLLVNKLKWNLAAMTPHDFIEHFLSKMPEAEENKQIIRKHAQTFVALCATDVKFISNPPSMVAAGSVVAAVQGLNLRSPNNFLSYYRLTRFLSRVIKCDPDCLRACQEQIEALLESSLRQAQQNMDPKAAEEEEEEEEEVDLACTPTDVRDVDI", "experiment": "KINOMEscan panel screen", "assay_type": "binding", "settings": "read-out: Percent Control(%)"}, "NIK": {"target": "T16, NIK (Homo sapiens, UniProt Q99558)", "T16 construct": "purchased DiscoveRx KINOMEscan (Ambit Biosciences)", "experiment": "KINOMEscan panel screen", "assay_type": "binding", "settings": "read-out: Percent Control(%)"}, "CSF1R-autoinhibited": {"target": "T17, CSF1R-autoinhibited (Homo sapiens, UniProt P07333)", "T17 construct": "purchased DiscoveRx KINOMEscan (Ambit Biosciences)", "experiment": "KINOMEscan panel screen", "assay_type": "binding", "settings": "read-out: Percent Control(%)"}},
  "note": "pIC50: −log10 of the molar value.",
  "data": [
    {"smiles": "O=C(Nc1ccc(Oc2ncnc3[nH]ncc23)cc1)Nc1ccc(Cl)c(C(F)(F)F)c1", "note": "[Compound 1, 1-(4-(1H-pyrazolo[3,4-d]pyrimidin-4-yloxy)phenyl)-3-(4-chloro-3-(trifluoromethyl)phenyl)urea]", "values": [
      {"measurement": "pIC50", "setting": "ERBB2 [1]", "result": "< 5.00"}
    ]},
    {"smiles": "CC(C)(C)c1cc(NC(=O)Nc2ccc(Oc3ncnc4[nH]ncc34)c(F)c2)no1", "note": "[SKLB-677, 1-(4-(1H-pyrazolo[3,4-d]pyrimidin-4-yloxy)-3-fluorophenyl)-3-(5-tert-butylisoxazol-3-yl)urea]", "values": [
      {"measurement": "remaining binding at 10 µM", "setting": "PIK3C2G", "result": 100, "unit": "%"},
      {"measurement": "remaining binding at 10 µM", "setting": "SgK110", "result": 100, "unit": "%"},
      {"measurement": "remaining binding at 10 µM", "setting": "MET(M1250T)", "result": 2.2, "unit": "%"},
      {"measurement": "remaining binding at 10 µM", "setting": "FLT3-autoinhibited", "result": 1.2, "unit": "%"},
      {"measurement": "mean survival time (MST)", "setting": "[2]; 3 mg/kg/day orally for 30 days", "result": 66, "unit": "days"},
      {"measurement": "number of Ki67-positive cells in femur BM", "setting": "[2]; 10 mg/kg/d for 6 days", "result": "obviously decreased"},
      {"measurement": "mean survival time (MST)", "setting": "[2]; 10 mg/kg/day orally for 30 days", "result": 78.5, "unit": "days"},
      {"measurement": "mean survival time (MST)", "setting": "[2]; 30 mg/kg/day orally for 30 days", "result": 85.5, "unit": "days"},
      {"measurement": "remaining binding at 10 µM", "setting": "PRKD1", "result": 98, "unit": "%"},
      {"measurement": "remaining binding at 10 µM", "setting": "HIPK4", "result": 0.45, "unit": "%"},
      {"measurement": "remaining binding at 10 µM", "setting": "CAMK2A", "result": 73, "unit": "%"},
      {"measurement": "pIC50", "setting": "PC-9", "result": 5.10},
      {"measurement": "remaining binding at 10 µM", "setting": "[3]", "result": 44, "unit": "%"},
      {"measurement": "remaining binding at 10 µM", "setting": "TTK", "result": 17, "unit": "%"},
      {"measurement": "remaining binding at 10 µM", "setting": "PYK2", "result": 64, "unit": "%"},
      {"measurement": "remaining binding at 10 µM", "setting": "ROCK1", "result": 100, "unit": "%"},
      {"measurement": "pIC50", "setting": "C32", "result": "< 5.00"},
      {"measurement": "remaining binding at 10 µM", "setting": "PRKG2", "result": 100, "unit": "%"},
      {"measurement": "remaining binding at 10 µM", "setting": "[4]", "result": 66, "unit": "%"},
      {"measurement": "tumor inhibition rate", "setting": "MV4-11 tumor xenograft; 1 mg/kg/d orally once per day for 21 days", "result": 66, "unit": "%"},
      {"measurement": "tumor response", "setting": "MV4-11 tumor xenograft; 3 mg/kg/d orally for 8 days", "result": "complete tumor regression"},
      {"measurement": "toxicity in xenograft mice", "setting": "MV4-11 tumor xenograft; 10 mg/kg/d or 3 mg/kg/d orally", "result": "without obvious toxicity"},
      {"measurement": "tumor response", "setting": "MV4-11 tumor xenograft; 10 mg/kg/d orally for 3 days", "result": "complete tumor regression"},
      {"measurement": "Ki67-positive cells in tumors compared with control group", "setting": "MV4-11 tumor xenograft; immunohistochemistry", "result": "evidently fewer"},
      {"measurement": "percentage of TUNEL-positive cells in tumors compared with vehicle", "setting": "MV4-11 tumor xenograft; immunohistochemistry", "result": "increased"},
      {"measurement": "remaining binding at 10 µM", "setting": "PIK3CA", "result": 100, "unit": "%"},
      {"measurement": "remaining binding at 10 µM", "setting": "ERBB2 [5]", "result": 100, "unit": "%"},
      {"measurement": "remaining binding at 10 µM", "setting": "CDK4-cyclinD1", "result": 29, "unit": "%"},
      {"measurement": "remaining binding at 10 µM", "setting": "NIK", "result": 90, "unit": "%"},
      {"measurement": "remaining binding at 10 µM", "setting": "CSF1R-autoinhibited", "result": 0.1, "unit": "%"}
    ]}
  ]
}
